Patent US20130296346A1, “DIPHENYL-AMINE DERIVATIVES: USES, PROCESS OF SYNTHESIS AND PHARMACEUTICAL COMPOSITIONS” (Faes Farma, S.A., priority 2010, published 2013)
Structures can show the parent of a compound that is named as a salt. One block for each compound: values may come before it.

How the values were obtained:
TNFr = test: TNF-R transfectant, NF-kB reporter gene (secreted phosphatase); format: cell-based
Text: (§1) The secreted phosphatase sPase was used as reporter for its ability to process the luminiscent or colorimetric substrates from the culture based in the hydrolysis of substrates chemically similar to nitrophenol phosphate. Five generation of transfectants were developed as described: • 1. IL-4R. Chains of Type II IL-4-r, which is the common one within non-haematopoietic cells were transfected, as well as STAT6 which the key molecule in the nuclear signalling route by IL-4-r, and finally a reporter gene to measure the response to STAT6 was introduced. Endogenously, cells had Janus Associated Kinase 1 (JAK1) which was previously known to be associated with STAT6 via p62/aPKC. • 2. IL-6R. Chains of IL-6R were transfected and a reporter gene able to measure the response to STAT3 was introduced. As it is well known, STAT3 is a transductional molecule and a nuclear factor physiologically produced in the standard responses IL-6/IL-6R. • 3. TNF-R. In this case, a reporter gene able to measure the response to NF-kB was introduced, as this is the transductional molecule and the nuclear factor physiologically produced in response to TNF-alpha. […] LPS-Receptor complex represented by TLR4/MD2/CD14. Reporter genes with elements of response to NFkB were used as in the previous case, but the selectivity was achieved by the co-transfection of components of the LPS-R complex. The LPS is captured from the serum through the union to one plasma protein known as LBP, which transfers the LPS to the membrane protein CD14. The LBP inclusion accounts for an increase of 1000-fold the sensitivity versus media or cultures LBP-frees. The molecule CD14 is not an LPS-receptor but a module of the receptor complex which captures LBP, allowing the transference of LPS in the cellular surface to MD2. CD14 has not a cytoplasmic tail and it is not able to be a signal transducer but it substantially increases the sensitivity of the system. In a similar way, MD2 is not a signal transducer but the combination of CD14 and MD2 allows the increase of the sensitivity by 10000-fold. • 5. IL-1R. Reporter genes with elements of response to NFkB were used as in the previous case, but the selectivity was achieved by the expression of components belonging to the receptor complex IL-1R. IL-1R belongs to a receptors superfamily which uses TIR transduction domains (Toll-like IL-1R). It is known that the IL-1R route activates mitogen-activated protein kinases (MAPK) of JNK type which in turn generate nuclear factors transcriptionally active as AP-1. The reporter gene includes NFkB and AP-1 sites chained in order to simulate the physiological situation.

IL4r = test: IL-4R transfectant, STAT6 reporter gene (secreted phosphatase); format: cell-based
Text: as §1

IL6r = test: IL-6R transfectant, STAT3 reporter gene (secreted phosphatase); format: cell-based
Text: as §1

[1] = Cytotoxicity for human non-tumoral cells, XTT; format: cell-based; details: HUVEC cells (primary, from human cords)
Protocol: (§2) The cytotoxicity of the compounds for human non-tumoral cells was studied in fibroblasts, HUVEC cells and resting PBLs (Peripheral Blood lymphocytes).
HUVEC cells were obtained by treating human cords with collagenase type I, […] in Hank's medium incubating 20 minutes at 37° C. Cells were collected afterwards and cultivated in medium M199 with supplements of 20% FBS, 1% P/S and 25 mg/500 ml of medium ECGF, Cells were grown on a 0.2% gelatin matrix.
(§3) Distinct amounts of exponentially growing cells were seeded in 96-well flat-bottomed microtiter plates in a final volume of 100 μl were seeded in 96-well flat-bottomed microtiter plates, and incubated at 37° C. in a humidified atmosphere of 5% CO2/95% air for 24 h to allow the cells attach to the plates. Then, cells were incubated with different concentrations of the assayed compound at 37° C. under the 5% CO2/95% air atmosphere for 72 h. Cell proliferation was quantified using the XTT cell proliferation kit (Roche Molecular Biochemicals, Mannheim, Germany) following the manufacturer's instructions. Briefly, a freshly prepared mixture solution (50 μl) of XTT labelling reagent and PMS (N-methyldibenzopyrazine methyl sulfate) electron coupling reagent was added to each well. The resulting mixtures were further incubated for 4 h in a humidified atmosphere (37° C., 5% CO2), and the absorbance of the formazan product generated was measured with a microtiter plate reader at a test wavelength of 490 nm and a reference wavelength of 655 nm. The IC50 (50% inhibitory concentration) was then calculated as the drug concentration causing a 50% inhibition of cell proliferation. Data are shown as mean values of four independent experiments each performed in triplicate.

resting human PBLs = test: Apoptosis of resting human PBLs; format: cell-based
Protocol: To isolate normal peripheral blood lymphocytes (PBLs), mononuclear cells were obtained from fresh human peripheral blood from healthy volunteers by centrifugation on Ficoll-Hypaque density gradients, washed with phosphate-buffered saline (PBS), and resuspended in RPMI-1640 medium containing 10% (v/v) heat-inactivated FBS, 2 mM L-glutamine, 100 U/ml penicillin, and 100 μg/ml streptomycin as described (Cabaner et al. Br. J. Pharmacol 127:813-825.1999). Monocytes were depleted by culture dish adherence after overnight incubation. Nonadherent cells (lymphocytes) were washed with PBS and collected. PBL preparations were typically 70-75% CD3^+, 24-29% CD 19^+, and less than 0.4% CD 14^+.

[2] = Cytotoxicity for human non-tumoral cells, XTT; format: cell-based; details: Fibroblasts
Protocol: as §2, §3

HCT116 = test: In vitro cytotoxicity, SRB method; format: cell-based; details: Homo sapiens, HCT-116, HCT116 colon cancer, 72 hours
Protocol: (§4) SRB method was followed (Wieland, V., et al. Sulforhodamine B Assay and Chemosensitivity. Chemosensitivity, volume 1, In Vitro Assays. Methods in Molecular Medicine. Edited by Rosalyn D. Blumenthal. Humana Press, Totowa, N.J., 2005).
(§5) Cells were seeded in microplates of 96 wells. In each well, according to the cell type, specific number of cells were seeded in 200 microliters. In these conditions, cells were cultured for 3 days, with the aim of reaching their exponential phase of growing to assay the product cytotoxicity. The product concentrations were prepared just the day of treatments, after thawing the stock solutions (10 mM). After harvesting the microplate with the seeded cells for 3 days, the culture medium was discarded and replaced by 150 μl of fresh medium in each well. This was followed by the addition of 50 μl of the corresponding product dilution so as the final concentration in the final volume of 200 microliters in each well was the one scheduled. The products, at the assayed concentrations, were in contact with the cell growing monolayer for 72 hours and incubated at 37° C., 5% CO2. Finally, cells were growth arrested adding […] of cold TCA (Trichloroacetic acid) 50%, (final concentration of 10% in the well). Microplate was then maintained at 4° C. for over 60 min to fix cellular proteins till initiation of washing and staining with SRB.
(§6) Cell viability (%)=(Cell population of the treated well/Maximum cell population of the Standard curve)×100.
(§7) Mean viability values for each concentration were calculated from the values obtained for each well in which that concentration was assayed.

NCI-H460 = test: In vitro cytotoxicity, SRB method; format: cell-based; details: Homo sapiens, NCI-H460 lung, 72 hours
Protocol: as §4, §5, §6, §7

SW260 = test: In vitro cytotoxicity, SRB method; format: cell-based; details: SW260 colon cancer, 72 hours
Protocol: as §4, §5, §6, §7

B16-F1 = test: In vitro cytotoxicity, SRB method; format: cell-based; details: Mus musculus, B16-F1 melanoma, 72 hours
Protocol: as §4, §5, §6, §7

SF268 = test: In vitro cytotoxicity, SRB method; format: cell-based; details: Homo sapiens, SF-268, SF268 glioblastoma, 72 hours
Protocol: as §4, §5, §6, §7

HepG2 = test: In vitro cytotoxicity, SRB method; format: cell-based; details: Homo sapiens, HepG2 hepatoma, 72 hours
Protocol: as §4, §5, §6, §7

Malm-3M = test: In vitro cytotoxicity, SRB method; format: cell-based; details: Malm-3M melanoma, 72 hours
Protocol: as §4, §5, §6, §7

- melting point: 109 to 110.7 °C
- Inhibition of TNFr (TNFr): Inhibition of TNFr up 30%
- Inhibition of IL4r (IL4r): Inhibition of IL4r total
- Inhibition of IL6r (IL6r): Inhibition of IL6r down 5%
Structure (SMILES): Cl.FC(F)(F)Oc1ccccc1CNCCCC=C(c1ccccc1)c1ccccc1 [Compound 10, (5,5-diphenyl-pent-4-enyl)-(2-trifluoromethoxybenzyl)amine hydrochloride]

Structure (SMILES): COc1cccc2c1C(=O)c1c(O)c3c(c(O)c1C2=O)C[C@@](O)(C(=O)CO)C[C@@H]3O[C@H]1C[C@H](N)[C@H](O)[C@H](C)O1 [Doxorubicin, reference compound]
- IC50 at 72 h [1]: 0.23 µM
- % Apoptosis PBLs (resting human PBLs; 10^−4 M): 21.7%
- % Apoptosis PBLs (resting human PBLs; 10^−5 M): 13.2%

- melting point: 163 to 165.5 °C
- Inhibition of TNFr (TNFr): Inhibition of TNFr total
- Inhibition of IL4r (IL4r): Inhibition of IL4r total
- Inhibition of IL6r (IL6r): Inhibition of IL6r total
Structure (SMILES): C(CCNCc1cccs1)=C(c1ccccc1)c1ccccc1.Cl [Compound 13, (4,4-diphenyl-but-3-enyl)-thiophen-2-ylmethyl-amine hydrochloride]

- melting point: 121.4 to 122.7 °C
Structure (SMILES): Cl.FC(F)(F)c1ccc(CNCCCC=C(c2ccccc2)c2ccccc2)cc1

- melting point: 69.2 to 73.8 °C
Structure (SMILES): COc1ccc(CNCCCC=C(c2ccccc2)c2ccccc2)cc1.Cl

- melting point: 126 to 128 °C
Structure (SMILES): Cl.FC(F)(F)Oc1ccc(CNCCC=C(c2ccccc2)c2ccccc2)cc1

- melting point: 125 to 126.9 °C
Structure (SMILES): C(CCCNCc1ccccn1)=C(c1ccccc1)c1ccccc1.Cl

- melting point: 102.4 to 104 °C
Structure (SMILES): Cl.FC(F)(F)Oc1cccc(CNCCCC=C(c2ccccc2)c2ccccc2)c1

- melting point: 108 to 109.7 °C
Structure (SMILES): C(CCCNCc1ccsc1)=C(c1ccccc1)c1ccccc1.Cl

Structure (SMILES): CC(=O)O[C@H]1C(=O)[C@@]2(C)[C@H]([C@H](OC(=O)c3ccccc3)[C@]3(O)C[C@H](OC(=O)[C@H](O)[C@@H](NC(=O)c4ccccc4)c4ccccc4)C(C)=C1C3(C)C)[C@]1(OC(C)=O)CO[C@@H]1C[C@@H]2O [Taxol, reference compound]
- IC50 at 72 h [1]: 0.00047 µM
- IC50 at 72 h [2]: 0.00075 µM

- Inhibition of TNFr (TNFr): Inhibition of TNFr total
- Inhibition of IL4r (IL4r): Inhibition of IL4r total
- Inhibition of IL6r (IL6r): Inhibition of IL6r low-75%
Structure (SMILES): Cc1nc2ccccc2n1CCCC=C(c1ccccc1)c1ccccc1 [Compound 27]

- melting point: 109 to 110.5 °C
Structure (SMILES): Cl.FC(F)(F)Oc1ccc(CNCCCCC=C(c2ccccc2)c2ccccc2)cc1

Structure (SMILES): CC(C)n1ncc2c(NCCCCC=C(c3ccccc3)c3ccccc3)ncnc21 [Compound 44, (6,6-Diphenyl-hex-5-enyl)-(1-isopropyl-1H-pyrazolo[3,4-d]pyrimidin-4-yl)amine hydrochloric salt]
- IC50 (HCT116): 5 to 50 µM
- IC50 (NCI-H460): 9.4 µM
- IC50 (SW260): 50 µM
- IC50 (B16-F1): 8 µM
- IC50 (SF268): 31 µM
- IC50 (HepG2): 5 to 50 µM
- IC50 (Malm-3M): 40 µM

- Inhibition of IL6r (IL6r): Inhibition of IL6r down-low (*)
Structure (SMILES): C(CCCn1ccnc1)=C(c1ccccc1)c1ccccc1 [Compound 28, 1-(5,5-Diphenyl-pent-4-enyl)-1H-imidazole]
- Inhibition of TNFr (TNFr): Inhibition of TNFr 25%
- Inhibition of IL4r (IL4r): Inhibition of IL4r 75%

Structure (SMILES): C(CCCNc1ncnc2[nH]ncc12)=C(c1ccccc1)c1ccccc1 [Compound 41, (5,5-Diphenyl-pent-4-enyl)-(1H-pyrazolo[3,4-d]pyrimidin-4-yl)amine]
- IC50 (HCT116): 5 to 50 µM
- IC50 (NCI-H460): 2 µM
- IC50 (SW260): 5 to 50 µM
- IC50 (B16-F1): 6 µM
- IC50 (SF268): 17 µM
- IC50 (HepG2): 5 to 50 µM
- IC50 (Malm-3M): 44 µM

- melting point: 205.7 to 207 °C
Structure (SMILES): Clc1nc(NCCCCC=C(c2ccccc2)c2ccccc2)c2nc[nH]c2n1 [Compound 29, (2-Chloro-9H-purin-6-yl)-(6,6-diphenyl-hex-5-enyl)-amine]

Structure (SMILES): C(CCCCNc1ncnc2[nH]ncc12)=C(c1ccccc1)c1ccccc1 [Compound 40, (6,6-Diphenyl-hex-5-enyl)-(1H-pyrazolo[3,4-d]pyrimidin-4-yl)amine]
- IC50 at 72 h [1]: 36 µM
- IC50 (HCT116): 5 to 50 µM
- IC50 (NCI-H460): 8.1 µM
- IC50 (SW260): 50 µM
- IC50 (B16-F1): 9 µM
- IC50 (SF268): 33 µM
- IC50 (HepG2): 5 to 50 µM
- IC50 (Malm-3M): 30 µM
